Where two headings read alike, the source gives them in different places.

Results on two molecules are retold here after patent US10350176B2 (priority 2013, dated 2019).

In series [1] the test system is Leishmania major. Particulars: primary screening, library compounds at 1 μM. How it is done: The compounds were screened for growth inhibition of the parasite Leishmania major.
The compounds were reformatted into 384-well polypropylene plates (Corning, cat. No. 3657) at a final concentration of 1 μM in DMSO and used to screen the growth inhibition of the parasite Leishmania major.

The test system of series [2] is Leishmania major in promastigote form. As to the kind of experiment: Promastigote growth inhibition assay (CellTiter-Blue). Type of series: cell-based. Particulars: 48 hours incubation; number of viable promastigotes reduced by 50%; read-out: L. major, in promastigote form (IC50). (The colour change of resazurin is a common sign of viable cells or microbes.)
Experimental: Antiparasitic activity in culture of promastigotes (insect form) was measured using a standard microdiluting method, determining the minimum inhibitory concentration (MIC) of the test sample, which leads to inhibition of parasite growth.
For promastigote growth inhibition assays the subculture 2 of L. major was cultured in Schneider's insect medium (Sigma, St. Louis, Mo., cat. No. S0146) supplemented with 50 μm/ml gentamicin (Sigma, St. Louis, Mo., cat. No. G1272), 63.7 μg/ml penicillin G (Sigma, St. Louis, Mo., cat. No. PENK), 100 μg/ml streptomycin (Sigma, St. Louis, Mo., cat. no. S6501), 2% human urine and 10% heat-inactivated fetal bovine serum (Sigma, St. Louis, Mo., cat. No. F2442).
Leishmania promastigotes in the logarithmic growth phase were dispensed into black 384-well plates (Corning, New York, N.Y., cat. No. 3571) at a concentration of 15,000 parasites/μl/well using a Multidrop Combi instrument (Thermo Fisher Scientific Inc., Waltham, Mass.). […] The metabolic capacity of the parasite was measured after 2.5 hours of incubation using the CellTiter-Blue® Reagent (Promega Corporation, Madison, Wis., cat. No. G8082) using EnVision Multilabel Reader (PerkinElmer Inc., Waltham, Mass.). Data were analyzed using non-linear regression (log (inhibitor) vs. response-variable slope). […]
For series [3], the system named is L. major, antimony salts resistant, in promastigote form. As to the kind of experiment: Promastigote growth inhibition assay, strain resistant to antimony salts. Type of series: cell-based, Leishmania major. Particulars: 48 hours incubation.
Experimental: Leishmania promastigotes in the logarithmic growth phase were dispensed into black 384-well plates (Corning, New York, N.Y., cat. No. 3571) at a concentration of 15,000 parasites/μl/well using a Multidrop Combi instrument (Thermo Fisher Scientific Inc., Waltham, Mass.). Immediately thereafter DPI (1 nM-500 nM) or amphotericin B (20 nM-10 μM) were added using “pitool” connected to JANUS® Automated Workstation (PerkinElmer Inc., Waltham, Mass.) and incubated for 48 hours. The metabolic capacity of the parasite was measured after 2.5 hours of incubation using the CellTiter-Blue® Reagent (Promega Corporation, Madison, Wis., cat. No. G8082) using EnVision Multilabel Reader (PerkinElmer Inc., Waltham, Mass.). Data were analyzed using non-linear regression (log (inhibitor) vs. response-variable slope). Preparation of the graphs and IC50 calculation were performed using GraphPad Prism 5 software (GraphPad Software, USA). The IC50 value was calculated by non-linear regression method as the concentration of DPI in which the number of viable promastigotes was reduced by 50% (values given below in Table 1).
Series [4] deals with Leishmania major in amastigote form. As to the kind of experiment: Cytotoxic effect on intracellular amastigotes in macrophages (flow cytometry, cell smears). Type of series: cell-based. Particulars: concentration at which number of infected macrophages decreased by 50%; 48 hours co-incubation. In general terms: A flow cytometer gives signals particle by particle.
Experimental: Macrophage precursors were isolated from bone marrow and incubated for 7 days at 37° C. and 5% CO2 in DMEM supplemented with supernatant of L929 cells (20 percent by volume) containing M-CSF. After differentiation the macrophages were infected with E-GFP-L. major in stationary phase of growth at a ratio of 1:10. Then the macrophages were incubated in DMEM supplemented with the supernatant of L929 cells (20% volume) containing M-CSF at 37° C. and 5% CO2. After 24 hours, the medium containing the extracellular parasites was discarded and the plates were washed 3 times with HBSS medium (Hanks' Balanced Salt Solution, Sigma, St. Louis, Mo., cat. No. H9269). […]
The samples were analyzed on a FACSCalibur flow cytometer (Becton, Dickinson and Company, Franklin Lakes, N.J.) using CellQuest Pro software (Becton, Dickinson and Company, Franklin Lakes, N.J.). […] The results were measured for 10,000 macrophages in the first experiment and for 20,000 macrophages in the second experiment. […]
Smears were stained with Giemsa (Sigma, St. Louis, Mo., cat. No. 11700) and analysed by fluorescence microscopy Leica6000DM (Leica Microsystems GmbH, Wetzlar, Germany) at a magnification 400×. The total number of parasites in 500 macrophages was determined. […]
Series [5] has as its system CCD 841 (intestinal epithelial cells). Particulars: DPI 9.8 nM-1.25 μM; 48 hours incubation.
Experimental: (§1) Human cells CCD 841 (intestinal epithelial cells) and MRC5 (fetal lung fibroblasts) in appropriate growth media were dispensed into black 384-well plates (Corning, cat. No. 3571) at a density of 15,000 cells/25 μl/well using a Multidrop Combi (Thermo Scientific). After 48 hours incubation at 37° C. and 5% CO2, cell viability was determined using a commercial assay CellTiter Blue Cell Viability Assay (Promega, cat. No. G8082). […] Fluorescence intensity was measured by the detector (reader) EnVision (Perkin Elmer), and measured data were analysed using the software Prism5 (GraphPad Software, Inc.).
For series [6], the system named is MRC5 (fetal lung fibroblasts). Particulars: DPI 9.8 nM-1.25 μM; 48 hours incubation.
Experimental: as §1
Series [7] has as its system Plasmodium falciparum. Particulars: kills Plasmodium falciparum; Yuan et al. Nat Chem Biol 2009; cited from earlier work.

With `c1ccc2c(c1)[I+]c1ccccc1-2` [DPI, [1,1′-biphenyl]-2,2′-diyliodonium], the results for the “growth inhibition of the parasite Leishmania major” value in series [1] and in series [1] (listed as diphenyleneiodonium (DPI)) were “potent inhibitor of the growth of Leishmania major” and “effective inhibitor”, respectively. Also, the IC50 in series [2] was 10 nM; in series [3], 15 nM; in series [7] it was 0.06 to 1 nM. Besides, in series [4], the “L. major, in intracellular amastigote form (LD50, μM)” value is 0.066 µM. Moreover, in series [5], the “viability of human CCD 841 cells” value is “no negative effect on the viability”. For the same molecule, in series [6], the “viability of human MRC5 cells” value is “no negative effect on the viability”.
Regarding `C[C@@H]1[C@H](O)[C@@H](C)/C=C/C=C/C=C/C=C/C=C/C=C/C=C/[C@H](O[C@@H]2O[C@H](C)[C@@H](O)[C@H](N)[C@@H]2O)C[C@@H]2O[C@](O)(C[C@@H](O)C[C@@H](O)[C@H](O)CC[C@@H](O)C[C@@H](O)CC(=O)O[C@H]1C)C[C@H](O)[C@H]2C(=O)O` [amphotericin B, reference compound], the results for the IC50 in series [2] and in series [3] were 39 nM and 43 nM, respectively. For the same molecule, in series [4], the “L. major, in intracellular amastigote form (LD50, μM)” value is 0.143 µM.

For orientation: IC50 means the concentration at which inhibition is half-maximal.
